The text below walks through data of patent publication US7981911B2, “Pharmaceutical formulations” (Abbott Laboratories, priority 1999, dated 2011).

This series is described as follows: oral bioavailability in dogs. It is filed as in vivo. To be noted: both sexes, beagle, dog, plasma; unformulated solid in a capsule dosage form; 5 mg/kg oral dose in dogs. The method, then:
Dogs (beagle dogs, mixed sexes, weighing 7-14 kg) were fasted overnight prior to dosing, but were permitted water ad libitum. Each dog received a 100 μg/kg subcutaneous dose of histamine approximately 30 minutes prior to dosing. Each dog received a single dosage form corresponding to a 5 mg/kg dose of the drug. The dose was followed by approximately 10 milliliters of water. Blood samples were obtained from each animal prior to dosing and 0.25, 0.5, 1.0, 1.5, 2, 3, 4, 6, 8, 10, and 12 hours after drug administration. The plasma was separated from the red cells by centrifugation and frozen (−30° C.) until analysis. Concentrations of parent drug were determined by reverse phase HPLC with low wavelength UV detection following liquid-liquid extraction of the plasma samples. The parent drug area under the curve was calculated by the trapezoidal method over the time course of the study. The absolute bioavailability of each test composition was calculated by comparing the area under the curve after oral dosing to that obtained from a single intravenous dose. Each capsule or capsule composition was evaluated in a group containing at least six dogs; the values reported are averages for each group of dogs.

For the compound `CC(C)c1nc(CN(C)C(=O)NC(C(=O)NC(Cc2ccccc2)CC(O)C(Cc2ccccc2)NC(=O)OCc2cncs2)C(C)C)cs1` (stereo not shown) [compound of formula I], the bioavailability is < 2%.

The bioavailability is dose-corrected exposure relative to a reference, in per cent. A lower bioavailability goes with poor availability.
